Patent publication US20260125371A1, “METHOD FOR INHIBITING CLOSTRIDIOIDES DIFFICILE SPORE GERMINATION” (UNIVERSITY OF NOTRE DAME DU LAC, priority 2022, published 2026)
Converted amounts (≈) assume the structure as drawn. Read-outs that look alike come from different tables or passages of the source.

Legend:
[1] = test system: C. difficile ATCC 43255; test: Determination of minimal-inhibitory concentrations (microdilution), C. difficile ATCC 43255; type: cell-based, Clostridioides difficile; conditions: for MIC: Clostridioides difficile
[2] = test system: S. aureus; test: MIC against S. aureus strains; type: cell-based; conditions: S. aureus ATCC 29213, 24 h; for MIC: Staphylococcus aureus, ATCC29213, 24 h, read-out: MIC (μg/mL) 24 h
[3] = C. difficile ATCC 43255, 48-h incubation
[4] = ATCC43255, 24 h, C. difficile ATCC 43255, 24 h, read-out: MIC (μg/mL) 24 h
[5] = ATCC43255, 48 h, C. difficile ATCC 43255, 48-h incubation, read-out: MIC (μg/mL) 48 h

Row | SMILES | MIC (μg/mL) 48 h [1, 3] [µg/mL] | MIC (μg/mL) 24 h ([1]; C. difficile ATCC 43255, 24 h) [µg/mL] | MIC (μg/mL) 24 h [2] [µg/mL] | MIC [1, 4] [µg/mL] | MIC [2] [µg/mL] | MIC [1, 5] [µg/mL]
1 | FC(F)(F)c1ccc(Oc2ccc(-c3noc(-c4n[nH]cc4I)n3)cc2)cc1 [Compound 28] | 128 (≈ 257 µM) | 128 (≈ 257 µM) | 2 (≈ 4.01 µM) | – | – | –
2 | OCC#Cc1c[nH]nc1-c1nc(-c2ccc(Oc3ccc(C(F)(F)F)cc3)cc2)no1 [Compound 29] | >128 | >128 | 4 (≈ 9.38 µM) | – | – | –
3 | O=C1C[C@H](c2nc(-c3ccc(Oc4ccc(C(F)(F)F)cc4)cc3)no2)CN1 [Compound 31] | >128 | >128 | >128 | – | – | –
4 | O=C1C[C@@H](c2nc(-c3ccc(Oc4ccc(C(F)(F)F)cc4)cc3)no2)CN1 [Compound 32] | >128 | >128 | >128 | – | – | –
5 | FC(F)(F)c1ccc(Oc2ccc(-c3noc(-c4c[nH]cn4)n3)cc2)cc1 [Compound 34] | 8 (≈ 21.5 µM) | 8 (≈ 21.5 µM) | 2 (≈ 5.37 µM) | – | – | –
6 | FC(F)(F)c1ccc(Oc2ccc(-c3noc(-c4cn[nH]n4)n3)cc2)cc1 [Compound 35] | >128 | >128 | 16 (≈ 42.9 µM) | – | – | –
7 | Nc1c[nH]nc1-c1nc(-c2ccc(Oc3ccc(C(F)(F)F)cc3)cc2)no1 [Compound 37] | >128 | >128 | 4 (≈ 10.3 µM) | – | – | –
8 | FC(F)(F)c1ccc(Oc2ccc(-c3noc(-c4n[nH]cc4NC4CCCC4)n3)cc2)cc1 [Compound 38] | >128 | >128 | >128 | – | – | –
9 | FC(F)(F)c1ccc(Oc2ccc(-c3noc(-c4n[nH]cc4NC4CCCCC4)n3)cc2)cc1 [Compound 39] | >128 | >128 | >128 | – | – | –
10 | CCCCNc1c[nH]nc1-c1nc(-c2ccc(Oc3ccc(C(F)(F)F)cc3)cc2)no1 [Compound 40] | >128 | >128 | >128 | – | – | –
11 | CCC(C)Nc1c[nH]nc1-c1nc(-c2ccc(Oc3ccc(C(F)(F)F)cc3)cc2)no1 (stereo not drawn) [Compound 41] | >128 | >128 | >128 | – | – | –
12 | CC(C)(C)OC(=O)N1CCC(Nc2c[nH]nc2-c2nc(-c3ccc(Oc4ccc(C(F)(F)F)cc4)cc3)no2)CC1 [Compound 42] | >128 | >128 | >128 | – | – | –
13 | O=C(Nc1c[nH]nc1-c1nc(-c2ccc(Oc3ccc(C(F)(F)F)cc3)cc2)no1)c1ccccn1 [Compound 43] | >128 | >128 | >128 | – | – | –
14 | O=C(Nc1c[nH]nc1-c1nc(-c2ccc(Oc3ccc(C(F)(F)F)cc3)cc2)no1)c1ccccc1 [Compound 44] | >128 | >128 | >128 | – | – | –
15 | FC(F)(F)c1ccc(Oc2ccc(-c3noc(-c4n[nH]c5ccccc45)n3)cc2)cc1 [Compound 45] | >128 | >128 | >128 | – | – | –
16 | FC(F)(F)c1ccc(Oc2ccc(-c3noc(-c4c[nH]c5ncccc45)n3)cc2)cc1 [Compound 46] | >128 | >128 | >128 | – | – | –

Row | SMILES | MIC (μg/mL) 48 h [1, 3] [µg/mL] | MIC (μg/mL) 24 h ([1]; C. difficile ATCC 43255, 24 h) [µg/mL] | MIC (μg/mL) 24 h [2] [µg/mL] | MIC [1, 4] [µg/mL] | MIC [2] [µg/mL] | MIC [1, 5] [µg/mL]
17 | O=[N+]([O-])c1c[nH]c(-c2nc(-c3ccc(Oc4ccc(C(F)(F)F)cc4)cc3)no2)c1 [Compound 47] | 8 (≈ 19.2 µM) | 8 (≈ 19.2 µM) | 8 (≈ 19.2 µM) | – | – | –
18 | O=C(O)c1ccc(-c2nc(-c3ccc(OC4CCCC4)cc3)no2)cc1 [Compound 49, 4-(3-(4-(Cyclopentyloxy)phenyl)-1,2,4-oxadiazol-5-yl)benzoic acid] | >128 | – | – | > 128 | > 128 | –
19 | Nc1ccc(-c2nc(-c3ccc(OC4CCCC4)cc3)no2)cc1 [Compound 51, 4-(3-(4-(Cyclopentyloxy)phenyl)-1,2,4-oxadiazol-5-yl) aniline] | >128 | – | – | 2 (≈ 6.22 µM) | 4 (≈ 12.4 µM) | –
20 | CS(=O)(=O)Nc1ccc(-c2nc(-c3ccc(OC4CCCC4)cc3)no2)cc1 [Compound 52, N-(4-(3-(4-(Cyclopentyloxy)phenyl)-1,2,4-oxadiazol-5-yl)phenyl) methanesulfonamide] | >128 | – | – | > 128 | > 128 | –
21 | NCc1ccc(-c2nc(-c3ccc(OC4CCCC4)cc3)no2)cc1 [Compound 53, (4-(3-(4-(Cyclopentyloxy)phenyl)-1,2,4-oxadiazol-5-yl)phenyl) methanamine] | – | – | – | 4 (≈ 11.9 µM) | 2 (≈ 5.96 µM) | 8 (≈ 23.9 µM)
22 | Cl.NCCCCc1nc(-c2ccc(OC3CCCC3)cc2)no1 [Compound 67, 4-(3-(4-(Cyclopentyloxy)phenyl)-1,2,4-oxadiazol-5-yl)butan-1-amine hydrochloride salt] | – | – | – | 128 | > 128 | 128
23 | CCOc1ccc(-c2noc(-c3ccc(O)cc3)n2)cc1 [Compound 86, 4-(3-(4-Ethoxyphenyl)-1,2,4-oxadiazol-5-yl)phenol] | – | – | – | > 128 | > 128 | > 128
24 | CCCOc1ccc(-c2noc(-c3ccc(O)cc3)n2)cc1 [Compound 87, 4-(3-(4-Propoxyphenyl)-1,2,4-oxadiazol-5-yl)phenol] | – | – | – | 4 (≈ 13.5 µM) | 128 (≈ 432 µM) | > 128
25 | CCCCOc1ccc(-c2noc(-c3ccc(O)cc3)n2)cc1 [Compound 90, 4-(3-(4-Butoxyphenyl)-1,2,4-oxadiazol-5-yl)phenol] | – | – | – | > 128 | > 128 | > 128
26 | Oc1ccc(-c2nc(-c3ccc(OC4CC4)cc3)no2)cc1 [Compound 92, 4-(3-(4-Cyclopropoxyphenyl)-1,2,4-oxadiazol-5-yl)phenol] | – | – | – | > 128 | > 128 | > 128
27 | Oc1ccc(-c2nc(-c3ccc(OC4CCC4)cc3)no2)cc1 [Compound 93, 4-(3-(4-Cyclobutoxyphenyl)-1,2,4-oxadiazol-5-yl)phenol] | – | – | – | > 128 | > 128 | > 128
28 | COc1ccc2oc3ccc(-c4noc(-c5n[nH]cc5[N+](=O)[O-])n4)cc3c2c1 [Compound 119, 3-(8-Methoxydibenzo[b,d]furan-2-yl)-5-(4-nitro-1H-pyrazol-3-yl)-1,2,4-oxadiazole] | – | – | – | 2 (≈ 5.3 µM) | 32 (≈ 84.8 µM) | 64 (≈ 170 µM)
29 | c1cc2cc(-c3nc(-c4ccc5occc5c4)no3)ccc2[nH]1 [Compound 120, 3-(Benzofuran-5-yl)-5-(1H-indol-5-yl)-1,2,4-oxadiazole] | – | – | – | > 128 | 64 (≈ 212 µM) | > 128
30 | Oc1ccc(-c2cc(-c3ccc(Oc4ccccc4)cc3)no2)cc1 [Compound 135, 4-(3-(4-Phenoxyphenyl)isoxazol-5-yl)phenol] | >128 | – | – | > 128 | > 128 | –
31 | Oc1ccc(-n2cc(-c3ccc(Oc4ccccc4)cc3)nn2)cc1 [Compound 136, 4-(4-(4-Phenoxyphenyl)-1H-1,2,3-triazol-1-yl)phenol] | >128 | – | – | > 128 | > 128 | –
